These results are taken from the OPERA property sets (Mansouri et al. 2018).

One may read the melting point as the temperature, or range, at which the solid turns liquid. In general, boiling point refers to the temperature of boiling at a given pressure.

Regarding `Nc1cnn(-c2ccccc2)c(=O)c1Cl`, the log10 Koc (L/kg) is 2.08, the log10 vapour pressure (mmHg) was -6.35 and the melting point is 205 °C.
As for `CCOC(=O)c1sc(N)nc1C(F)(F)F`, the melting point was 186 °C.
As to `Fc1cccc(F)n1`, the boiling point is 125 °C.
Regarding `C=C1CCCCC1`, the boiling point amounted to 102 °C, the log10 vapour pressure (mmHg) was determined as 1.6 and the melting point is -107 °C.
In turn, `CCOP(=S)(OCC)Oc1ccc(S(C)(=O)=O)cc1` returned a log10 Koc (L/kg) of 2.17.
In the case of `Ic1cc(I)c(I)cc1I`, the melting point came out at 254 °C.
Regarding `O=CC=O`, the boiling point stood at 50.4 °C, the log10 Henry constant (atm·m³/mol) was -8.48, the log10 vapour pressure (mmHg) was found to be 2.41 and the melting point was 15 °C. The ready biodegradability entry was “readily biodegradable”.
On to `C=Cc1ccc(OC)cc1`, for which the boiling point was 205 °C.
Molecule `Cc1cc(Cl)ccc1OC(C)C(=O)O` (stereo not given) had a boiling point of 298 °C, a log10 Koc (L/kg) of 1.3 and a melting point of 94.5 °C.
Turning to `COc1ccc2c3c1O[C@H]1C(=O)CC[C@@]4(O)[C@@H](C2)N(C)CC[C@]314`, the melting point was determined as 219 °C.
Still for that read-out and setting: with `O=P(N1CC1)(N1CC1)N1CC1` the figure was 41 °C.
On to `CCC(C)OC` (stereo not given), for which the boiling point was determined as 65 °C, the log10 vapour pressure (mmHg) was 2.32 and the melting point is -100 °C.
`CCCC(=O)OC1CCCCC1` registered a boiling point of 213 °C.
Turning to `CN(c1ccccc1)c1ccccc1`, the boiling point was 294 °C, the log10 vapour pressure (mmHg) is -2.51 and the melting point is -7.5 °C.
For `CCCCC[C@H](O)/C=C/[C@H]1[C@H](O)CC(=O)[C@@H]1C/C=C\CCCC(=O)O`, the melting point came out at 67 °C.
Same read-out and setting: the same measure for `O=C(Cl)CCc1ccccc1`: -2 °C; for `NS(=O)(=O)c1ccc(SCCO)cc1`: 112 °C; for `CC(=O)c1ccc(OCC(=O)O)cc1`: 176 °C.
As for `CC(=O)C(F)(F)F`, the boiling point amounted to 22 °C and the log10 Henry constant (atm·m³/mol) is -5.11.
As to `C=C(C)CC(C)C`, the boiling point was 81.6 °C, the log10 vapour pressure (mmHg) is 1.98 and the melting point is -124 °C.
In turn, `CCOP(=O)(N=C1SCCS1)OCC` came in with a melting point of 41 °C.
On the same count and under the same terms, with `NCCOB(c1ccccc1)c1ccccc1` the figure was 193 °C.
Consider `C/C=C(\C)C=O`, for which the boiling point was 117 °C.
In the case of `OC(c1ccc(Cl)cc1)(c1cncnc1)c1ccccc1Cl` (stereo not given), the log10 Koc (L/kg) was 2.78 and the melting point was determined as 118 °C.
For `CCCC(CC(OCC)OCC)OCC` (stereo not given), the melting point is -100 °C.
Consider `CC(C)=CC1C(C(=O)OCc2cccc(Oc3ccccc3)c2)C1(C)C` (stereo not given), for which the log10 vapour pressure (mmHg) was -6.84.
`CC1=C(/C=C/C(C)=C/C=C/C(C)=C/C(=O)O)C(C)(C)CCC1` yielded a melting point of 181 °C.
Turning to `CCC(C)C(=O)NC1CCC(=O)N(CCc2ccccc2)C1=O` (stereo not given), the melting point came to 108 °C.
For `CC(=O)c1c[nH]c2ccccc12`, the melting point was 192 °C.
The molecule `CC[C@H](CC[C@@H](C)[C@H]1CC[C@H]2C3=CC=C4C[C@@H](O)CC[C@]4(C)[C@H]3CC[C@]12C)C(C)C` came in with a melting point of 144 °C.
Consider `CCCCCCCC/C=C\CCCCCCCCCCCCC`, for which the boiling point amounted to 378 °C and the log10 vapour pressure (mmHg) was -4.45.
On to `CCN(CC)CCC1(c2ccccc2)C(=O)Oc2ccccc21` (stereo not given), for which the melting point amounted to 43.4 °C.
`O=[N+]([O-])c1cccc(SSc2cccc([N+](=O)[O-])c2)c1` had a melting point of 84 °C.
On the same count and under the same terms, with `CCOC(=O)CCCCCCCCCCCCCCCCC(=O)OCC` the figure was 54.5 °C; with `O=C(O)c1c(F)cc(F)cc1F`, 143 °C.
Regarding `CCCSP(=O)(OCC)SCCC`, the log10 Koc (L/kg) came out at 1.85, the log10 vapour pressure (mmHg) is -3.42 and the melting point is -13 °C.
Consider `c1ccc2c(c1)Cc1ccccc1-2`, for which the boiling point worked out at 295 °C, the log10 Henry constant (atm·m³/mol) is -4.02, the log10 Koa worked out at 6.79 and the log10 Koc (L/kg) came to 3.7. Also, the log10 biodegradation half-life (days) stood at 1.64, the log10 vapour pressure (mmHg) is -3.22, the melting point was 115 °C and the ready biodegradability result was “not readily biodegradable”.
As to `COc1cccc(Cl)n1`, the boiling point stood at 186 °C.
`CCOC(=O)C(=O)Cl` returned a boiling point of 137 °C and a log10 vapour pressure (mmHg) of 0.882.
As to `NC(=O)c1ccccc1OCC(=O)O`, the melting point is 221 °C.
Same read-out and setting: the same measure for `CC(=O)CC(=O)Nc1ccc(Cl)cc1`: 132 °C.
`CCCCCCCCCCCC(=O)O`: the boiling point stood at 299 °C, the log10 vapour pressure (mmHg) is -4.8 and the melting point was 43.2 °C.
As for `CCCCOc1ccc(O)cc1`, the melting point is 65.5 °C.
Regarding `N#Cc1ccc(OC(F)(F)F)cc1`, the boiling point came out at 192 °C.
Regarding `CC#CCCCCCCCC`, the boiling point was 204 °C and the melting point was -30.1 °C.
As to `C/C=C/C(=O)OCC`, the boiling point turned out to be 137 °C.
`COc1cc(C[C@H]2c3cc(OC)c(OC)cc3CCN2C)c(Oc2cc3c(cc2OC)-c2c(OC)c(OC)cc4c2[C@H](C3)N(C)CC4)cc1OC` came in with a melting point of 160 °C.
As for `O=C1CCOCC1`, the boiling point turned out to be 166 °C.
In turn, `CCC(=O)OCc1ccccc1` displayed a boiling point of 220 °C.
As for `CCCC(=O)OC`, the boiling point was 103 °C, the log10 Henry constant (atm·m³/mol) is -3.69, the log10 vapour pressure (mmHg) was 1.51 and the melting point was -85.8 °C.
Take `OC(CCl)CCl`: the boiling point was found to be 176 °C, the log10 vapour pressure (mmHg) was -0.125, the melting point was -4 °C and the ready biodegradability result is reported as “readily biodegradable”.
`O=C(O)CCC(=O)c1ccc(-c2ccccc2)cc1`: the melting point worked out at 186 °C.
